Assay results reported in patent US10265310B2, “6-membered cyclic amines or lactames substituted with urea and phenyl” (GRÜNENTHAL GMBH, priority 2016, dated 2019).

Assays:
[1] = target: FPR2 (Homo sapiens (Human), UniProt P25090); test: Agonistic activity (calcium FLIPR) in hFPR2-Aq-CHO cells; type: cell-based; conditions: FLIPR Calcium 5 dye fluorescence, agonistic response
Procedure: (§1) Cells (hFPR1-Gα15-CHO or hFPR2-Aq-CHO) are suspended in 10 mL of respective complete medium (F12(1×) HAM media; 10% HI-FBS; 0.1 mg/ml Hygromycin B and 0.2 mg/ml Zeocin [for hFPR1 only]; 0.4 mg/mL Geneticin and 0.25 mg/ml Zeocin [for hFPR2-Aq only]) and viability is checked using Trypan Blue exclusion. After washing, the cells are plated at 10,000 cells per well in 40 μL complete medium in a 384-well sterile clear bottom black plate and incubated in a 5% CO2 incubator at 37° C. for 18 hours. Plating media is removed from each well by decanting and gentle tapping before 30 μL of 0.5× Calcium 5 dye solution (0.5×FLIPR Calcium 5 dye (Molecular devices, R8186)); HBSS; 20 mM HEPES; 2.5 mM Probenecid; 0.025% Pluronic F-127; pH adjusted to 7.4) is added to each well and the plate is then incubated at 37° C. for 30 minutes. For the assay the plate is equilibrated at room temperature for 10 minutes before placing it in the FLIPR. Compounds are dissolved in DMSO and serially diluted over an 11 point half log (3.16 fold) dilution (2 mM to 20 nM). Compounds are then diluted 1:50 in assay buffer (HBSS; 20 mM HEPES; 2.5 mM Probenecid; 0.05% gelatin; 0.1% BSA; pH adjusted to 7.4) just before performing the assay. Compounds are finally added to the respective wells of the cell plate (final assay concentration 10 μM to 100 pM) using the FLIPR (e.g. FLIPR-Tetra, Molecular Devices) and fluorescence readings are captured for 5 minutes. The increase in fluorescence from the basal reading in the presence of the compounds is compared with that of the control wells (wells having no compound) to calculate the activity of the compounds. The EC50 values of the compounds can be determined using e.g. Graph pad Prism software.
(§2) Assay Method for Measuring Agonistic Activity of Compounds in hFPR1-Gα15-CHO and hFPR2-Aq-CHO Cell
(§3) Cryo-vial containing 6×10^6 cells (hFPR1-Gα15-CHO or hFPR2-Aq-CHO) was thawed in a 37° C. water bath. Cells were suspended in 10 ml of respective complete growth media (F12(1×) HAM media (Gibco; Cat#11765); 10% HI-FBS (Gibco; Cat#10082); 0.1 mg/ml Hygromycin B (Invitrogen; Cat#10687-010) [for hFPR1 only]; 0.2 mg/ml Zeocin (Invitrogen; Cat#R25001) [for hFPR1 only]; 0.4 mg/ml Geneticin (Gibco; Cat#10131) [for hFPR2-Aq only]; 0.25 mg/ml Zeocin (Invitrogen; Cat#R25001) [for hFPR2-Aq only]) in a 15 ml centrifuge tube. The cell viability was checked with the help of Trypan Blue dye. Upon washing the cells, those were plated in a 384-well sterile clear bottom black plate (Greiner Bioone Cat#781091) so that, each well contained 10,000 cells in 40 μl complete growth media. The plate was incubated in a 5% CO2 incubator at 37° C. for 18 hours.
(§4) Before assay on the next day, the cell plating media was removed from each well of the plate by decanting and gentle tapping. 30 μl, 0.11 of 0.5× Calcium 5 dye solution (0.5×FLIPR Calcium 5 dye (Molecular devices Cat# R8186); HBSS (Invitrogen; Cat#14025); 20 mM HEPES (Sigma; Cat#H0887); 2.5 mM Probenecid (Sigma; Cat#P8761); 0.025% Pluronic F-127 (Sigma; Cat#P2443); pH adjusted to 7.4) was added to each well. The plate was then incubated at 37° C. for 30 minutes. Following which the plate was equilibrated at room temperature for 10 minutes before placing it in a 384 well FLIPR for assay. Compounds were dissolved in DMSO and serially diluted following 11 point half log (3.16 fold) dilution with a starting concentration of 2 mM (Final assay concentration 10 μM). Aliquots of above mentioned each dilution was mixed with assay buffer (HBSS (Invitrogen; Cat#14025); 20 mM HEPES (Sigma; Cat#H0887); 2.5 mM Probenecid (Sigma; Cat#P8761); 0.05% gelatin (Sigma; Cat#G1890); 0.1% BSA (Sigma; Cat#A3059); pH adjusted to 7.4) just before performing the assay. Compounds were added to the respective wells of the assay ready cell plate with the help of the FLIPR (FLIPR Tetra) and fluorescence readings were captured for 5 minutes to measure any agonistic response of the compounds. […]

[2] = target: FPR1 (Homo sapiens (Human), UniProt P21462); test: Agonistic activity (calcium FLIPR) in hFPR1-Gα15-CHO cells; type: cell-based; conditions: FLIPR Calcium 5 dye fluorescence, agonistic response
Sequence of FPR1 (P21462 whole entry): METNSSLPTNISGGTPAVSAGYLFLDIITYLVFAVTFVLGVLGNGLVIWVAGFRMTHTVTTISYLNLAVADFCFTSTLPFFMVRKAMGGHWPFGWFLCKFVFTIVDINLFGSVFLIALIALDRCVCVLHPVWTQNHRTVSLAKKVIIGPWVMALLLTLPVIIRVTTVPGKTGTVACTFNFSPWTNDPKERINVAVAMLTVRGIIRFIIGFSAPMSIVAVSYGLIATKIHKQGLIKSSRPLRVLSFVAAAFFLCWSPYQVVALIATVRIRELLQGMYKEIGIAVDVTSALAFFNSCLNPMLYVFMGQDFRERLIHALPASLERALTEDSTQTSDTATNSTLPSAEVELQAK
Procedure: as §1, §2, §3, §4

Sequence of FPR2 (P25090 whole entry): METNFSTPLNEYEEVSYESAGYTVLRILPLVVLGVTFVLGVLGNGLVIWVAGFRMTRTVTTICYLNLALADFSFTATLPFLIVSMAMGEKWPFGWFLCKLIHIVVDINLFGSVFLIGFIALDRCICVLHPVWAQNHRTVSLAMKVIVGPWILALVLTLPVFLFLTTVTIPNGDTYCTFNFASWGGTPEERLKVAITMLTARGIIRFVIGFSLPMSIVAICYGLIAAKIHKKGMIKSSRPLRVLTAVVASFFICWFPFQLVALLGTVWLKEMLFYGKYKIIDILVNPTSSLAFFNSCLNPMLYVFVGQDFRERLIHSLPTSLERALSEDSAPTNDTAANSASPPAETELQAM

SMILES	EC50 [1] [nM]	EC50 [2] [nM]
COc1ccc([C@@H]2CC(=O)NC[C@H]2NC(=O)Nc2ccc(Cl)cc2)cc1 (racemic) [Example 1, rac-trans-1-(4-chlorophenyl)-3-(4-(4-methoxyphenyl)-6-oxopiperidin-3-yl)urea]	< 1	1 to 1000
COc1ccc([C@@H]2CCN(C(C)=O)C[C@H]2NC(=O)Nc2ccc(Cl)cc2)cc1 (racemic) [Example 2, rac-trans-1-(1-acetyl-4-(4-methoxyphenyl)piperidin-3-yl)-3-(4-chlorophenyl)urea]	< 1	< 1
COc1ccc([C@@H]2CC(=O)NC[C@H]2NC(=O)Nc2ccc(Br)cc2)cc1 (racemic) [Example 3, rac-trans-1-(4-bromophenyl)-3-(4-(4-methoxyphenyl)-6-oxopiperidin-3-yl)urea]	< 1	1 to 1000
COc1ccc([C@@H]2CCNC[C@H]2NC(=O)Nc2ccc(Cl)cc2)cc1 (racemic) [Example 4, rac-trans-1-(4-chlorophenyl)-3-(4-(4-methoxyphenyl)piperidin-3-yl)urea]	< 1	1 to 1000
COc1cc(F)c([C@@H]2CCN(C(C)=O)C[C@H]2NC(=O)Nc2ccc(Cl)cc2)c(F)c1 (racemic) [Example 5, rac-trans-1-(1-acetyl-4-(2,6-difluoro-4-methoxyphenyl)piperidin-3-yl)-3-(4-chlorophenyl)urea]	< 1	1 to 1000
COc1ccc([C@@H]2CCNC[C@H]2NC(=O)Nc2ccc(Br)cc2)cc1 (racemic) [Example 6, rac-trans-1-(4-bromophenyl)-3-(4-(4-methoxyphenyl)piperidin-3-yl)urea]	< 1	1 to 1000
COc1cc(F)c([C@@H]2CCNC[C@H]2NC(=O)Nc2ccc(Br)cc2)c(F)c1 (racemic) [Example 8, rac-trans-1-(4-bromophenyl)-3-(4-(2,6-difluoro-4-methoxyphenyl)piperidin-3-yl)urea]	< 1	1 to 1000
COc1cc(F)c([C@@H]2CCNC[C@H]2NC(=O)Nc2ccc(Cl)cc2)c(F)c1 (racemic) [Example 9, rac-trans-1-(4-chlorophenyl)-3-(4-(2,6-difluoro-4-methoxyphenyl)piperidin-3-yl)urea]	< 1	1 to 1000
COc1ccc([C@@H]2CCN(C(=O)C3CC3)C[C@H]2NC(=O)Nc2ccc(Cl)cc2)cc1 (racemic) [Example 12, rac-trans-1-(4-chlorophenyl)-3-(1-(cyclopropanecarbonyl)-4-(4-methoxyphenyl)piperidin-3-yl)urea]	< 1	< 1
COc1ccc([C@@H]2CCN(C(=O)CO)C[C@H]2NC(=O)Nc2ccc(Cl)cc2)cc1 (racemic) [Example 13, rac-trans-1-(4-chlorophenyl)-3-(1-(2-hydroxyacetyl)-4-(4-methoxyphenyl)piperidin-3-yl)urea]	< 1	< 1
COc1ccc([C@@H]2CCN(C(=O)C(C)(F)F)C[C@H]2NC(=O)Nc2ccc(Cl)cc2)cc1 (racemic) [Example 14, rac-trans-1-(4-chlorophenyl)-3-(1-(2,2-difluoropropanoyl)-4-(4-methoxyphenyl)piperidin-3-yl)urea]	< 1	< 1
COCCC(=O)N1CC[C@@H](c2ccc(OC)cc2)[C@H](NC(=O)Nc2ccc(Cl)cc2)C1 (racemic) [Example 15, rac-trans-1-(4-chlorophenyl)-3-(4-(4-methoxyphenyl)-1-(3-methoxypropanoyl)piperidin-3-yl)urea]	< 1	< 1
COc1ccc([C@@H]2CCN(C(=O)C3CCOCC3)C[C@H]2NC(=O)Nc2ccc(Cl)cc2)cc1 (racemic) [Example 16, rac-trans-1-(4-chlorophenyl)-3-(4-(4-methoxyphenyl)-1-(tetrahydro-2H-pyran-4-carbonyl)piperidin-3-yl)urea]	< 1	< 1
COc1ccc([C@@H]2CCN(C(=O)C(C)C)C[C@H]2NC(=O)Nc2ccc(Cl)cc2)cc1 (racemic) [Example 17, rac-trans-1-(4-chlorophenyl)-3-(1-isobutyryl-4-(4-methoxyphenyl)piperidin-3-yl)urea]	< 1	< 1
COc1ccc([C@@H]2CCN(C(=O)CC(C)C)C[C@H]2NC(=O)Nc2ccc(Cl)cc2)cc1 (racemic) [Example 18, rac-trans-1-(4-chlorophenyl)-3-[4-(4-methoxyphenyl)-1-(3-methyl-butanoyl)-piperidin-3-yl]-urea]	< 1	< 1
COc1ccc([C@@H]2CCN(C(C)=O)C[C@H]2NC(=O)Nc2ccc(Cl)nc2)cc1 (racemic) [Example 19, rac-trans-1-(1-acetyl-4-(4-methoxyphenyl)piperidin-3-yl)-3-(6-chloropyridin-3-yl)urea]	1 to 1000	1 to 1000
COc1ccc([C@@H]2CC(=O)N(CC(N)=O)C[C@H]2NC(=O)Nc2ccc(Cl)cc2)cc1 (racemic) [Example 20, rac-trans-2-(5-(3-(4-chlorophenyl)ureido)-4-(4-methoxyphenyl)-2-oxopiperidin-1-yl)acetamide]	< 1	1 to 1000
COC(=O)CN1C[C@@H](NC(=O)Nc2ccc(Cl)cc2)[C@H](c2ccc(OC)cc2)CC1=O (racemic) [Example 21, rac-trans-methyl 2-(5-(3-(4-chlorophenyl)ureido)-4-(4-methoxyphenyl)-2-oxopiperidin-1-yl)acetate]	< 1	< 1
COc1cc(F)c([C@@H]2CC(=O)NC[C@H]2NC(=O)Nc2ccc(Cl)cc2)c(F)c1 (racemic) [Example 23, rac-trans-1-(4-chlorophenyl)-3-(4-(2,6-difluoro-4-methoxyphenyl)-6-oxopiperidin-3-yl)urea]	< 1	1 to 1000
COc1ccc([C@@H]2CC(=O)N(CC3CC3)C[C@H]2NC(=O)Nc2ccc(Cl)cc2)cc1 (racemic) [Example 24, rac-trans-1-(4-chlorophenyl)-3-(1-(cyclopropylmethyl)-4-(4-methoxyphenyl)-6-oxopiperidin-3-yl)urea]	< 1	1 to 1000
COc1ccc([C@@H]2CCN(C(C)=O)C[C@H]2NC(=O)Nc2cncnc2)cc1 (racemic) [Example 25, rac-trans-1-(1-acetyl-4-(4-methoxyphenyl)piperidin-3-yl)-3-(pyrimidin-5-yl)urea]	1 to 1000	1 to 1000
COc1ccc([C@@H]2CCN(C(C)=O)C[C@H]2NC(=O)Nc2ccc(C)nc2)cc1 (racemic) [Example 26, rac-trans-1-(1-acetyl-4-(4-methoxyphenyl)piperidin-3-yl)-3-(6-methylpyridin-3-yl)urea]	1 to 1000	1 to 1000
CSc1ccc([C@@H]2CC(=O)NC[C@H]2NC(=O)Nc2ccc(Cl)cc2)cc1 (racemic) [Example 72, rac-trans-1-(4-chlorophenyl)-3-(4-(4-(methylthio)phenyl)-6-oxopiperidin-3-yl)urea]		1 to 1000
